The target in assay [1] is T1, Decaprenyl diphosphate synthase (Mycobacterium tuberculosis (strain CDC 1551 / Oshkosh), UniProt P9WFF6).
T1 sequence (P9WFF6 whole entry): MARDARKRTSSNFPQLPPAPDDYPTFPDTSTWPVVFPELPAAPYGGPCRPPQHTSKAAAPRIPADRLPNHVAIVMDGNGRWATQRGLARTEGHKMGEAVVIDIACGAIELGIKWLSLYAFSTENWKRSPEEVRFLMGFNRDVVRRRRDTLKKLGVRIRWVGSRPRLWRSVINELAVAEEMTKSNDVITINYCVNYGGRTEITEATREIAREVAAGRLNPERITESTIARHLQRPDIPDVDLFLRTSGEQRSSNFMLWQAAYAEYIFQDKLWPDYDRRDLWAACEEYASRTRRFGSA
The experiment in a line: DPPS Inhibition (GPP based) Assay. Particulars: pH 7.5. From the text:
We screened an in-house library of 43 compounds using GPP as substrate.

The target in assay [2] is T1, Decaprenyl diphosphate synthase. The assay can be described thus: DPPS Inhibition (cis FPP based) Assay. To be noted: pH 7.5. From the text:
We screened an in-house library of 19 compounds using cis-FPP as substrate.

For assay [3], the target named is T2, Tuberculosinyl adenosine transferase (Mycobacterium tuberculosis (strain CDC 1551 / Oshkosh), UniProt P9WJ60).
T2 sequence (P9WJ60 whole entry): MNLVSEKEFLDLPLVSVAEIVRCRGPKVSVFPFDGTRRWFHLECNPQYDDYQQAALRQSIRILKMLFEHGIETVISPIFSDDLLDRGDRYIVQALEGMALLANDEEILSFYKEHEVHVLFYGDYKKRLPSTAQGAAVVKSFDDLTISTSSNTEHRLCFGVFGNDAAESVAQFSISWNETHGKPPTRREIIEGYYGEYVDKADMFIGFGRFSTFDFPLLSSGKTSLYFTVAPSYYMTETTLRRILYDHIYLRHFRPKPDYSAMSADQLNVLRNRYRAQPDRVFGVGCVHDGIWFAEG
The assay can be described thus: Rv3378c Inhibition Assay. As for the experimental part: For inhibition assay of Rv3378c, using tuberculosinyl diphosphate and adenosine as substrates, a mixture of 100 µM TPP, 100 µM adenosine,75 µg/mL Rv3378c, and inhibitors in the assay buffer (25 mM Tris-HCl, 1 mM MgCl2, 0.01% Triton-X-100) was incubated for 2 h at 37 °C.

In assay [4] the target is T1, Decaprenyl diphosphate synthase. The assay can be described thus: DPPS Inhibition (trans FPP based) Assay. To be noted: pH 7.5. The text has this:
We screened an in-house library of 53 compounds using trans-FPP as substrate.

Consider `CCCCCCCCOc1cccc(C(=O)Nc2ccc([N+](=O)[O-])cc2C(=O)O)c1` [BPH-1247], for which the IC50 (commonly the concentration needed to halve the response being measured) in assay [1] is 0.119 µM; in assay [2] it was 49 µM. On to `O=P(O)(O)C(O)(Cc1cccc(-c2cccc3c2oc2ccccc23)c1)P(=O)(O)O` [[1-hydroxy-2-(3-{8-oxatricyclo[7.4.0.0^{2,7}]trideca-1(13),2,4,6,9,11-hexaen-6-yl}phenyl)-1-phosphonoethyl]phosphonic acid], for which the values for the 50% inhibitory concentration (IC50) in assay [3] and in assay [4] were 0.21 µM and 19 µM, respectively.

`O=C(Nc1cccc(C2=NCCN2)c1)c1ccc(-c2ccc(C(=O)Nc3cccc(C4=NCCN4)c3)cc2)cc1` [50460, 14]: the half-maximal inhibitory concentration (IC50) in assay [3] is 96 µM. As to `O=P(O)(O)C(O)(c1cccc(-c2cccc(-c3ccccc3)c2)c1)P(=O)(O)O` [BPH-640], the concentration for half-maximal inhibition (IC50) stood at 0.41 µM in assay [1] and 0.61 µM in assay [2]. The matching figures for `CCCCCCCCOc1cc(O)cc(COc2ccc(Br)cc2C(=O)O)c1` [BPH-1311]: 2.9 µM and 56 µM. In the same order, the values of `CCCCCCCCOc1cccc(C(=O)Nc2cccc(C(=O)O)c2C(O)O)c1` [BPH-1461] are 0.164 µM and 55 µM. With `C(=C\c1cc2ccc(C3=NCCN3)cc2[nH]1)/c1cc2ccc(C3=NCCN3)cc2[nH]1` [BPH-1417], the results for the IC50 in assay [3], in assay [1] and in assay [2] were 0.66 µM, 0.49 µM and 20 µM, respectively. With `CCCCCCCCOc1cccc(C(=O)Nc2ccc(Br)cc2C(=O)O)c1` [BPH-1264], the IC50 stood at 0.068 µM in assay [1] and 11 µM in assay [2]. In the same order, the values of `CCCCCCCCOc1cccc(COc2ccc(S(=O)(=O)N3CCOCC3)cc2C(=O)O)c1` [BPH-1158] are 1.4 µM and 83 µM.

`CCCCCCCCCCCCCCCn1cc[n+](CC(O)(P(=O)(O)O)P(=O)(O)O)c1` [BPH-1325] came in with an IC50 in assay [2] of 36 µM.

As to `Cc1ccc(S(=O)(=O)N2CCN(c3ccc(C(=O)/C=C(\O)C(=O)O)cc3)CC2)cc1` [BPH-1380], the IC50 in assay [2] is 20 µM. `CCCCCCCCOc1ccc(C(=O)CSCC(=O)O)cc1` [BPH-1391] returned a half-inhibitory concentration (IC50) in assay [2] of 82 µM. On to `O=C(O)c1ccccc1SCc1cccc(Oc2ccccc2)c1` [BPH-1125], for which the half-inhibitory concentration (IC50) in assay [1] was determined as 1.2 µM; in assay [2], 30 µM. In the same order, the values of `C=CCC(/C=C/C(=O)Nc1ccc(F)cc1C(=O)O)OCCCCCCCC` (stereo unspecified) [BPH-1463] are 0.031 µM and 90 µM. In the same order, the values of `CCCCCCCCOc1ccc(F)c(C(=O)Nc2ccc(F)cc2C(=O)O)c1` [BPH-1485] are 0.308 µM and 20 µM. The matching figures for `CCCCCCCCOc1cccc(C(=O)Nc2cc(OC)c(OC)cc2C(=O)O)c1` [BPH-1294]: 0.205 µM and 62 µM. In turn, `CCCCCCCCCCOc1cccc(COc2ccccc2P(=O)(O)O)c1` [BPH-1159] gave an IC50 in assay [2] of 55 µM. In the case of `CCCCCCCCCCOc1cccc(CSc2ccccc2C(=O)O)c1` [BPH-1102], inhibition in assay [2] was half-maximal at 19 µM (IC50).
